The test system of one series is HT-29. The experiment in a line: Cytotoxicity against human HT-29 cells assessed as reduction in cell viability measured after 48 hrs by MTT assay. Format: functional, cell-based. The settings on record: HT-29, 48 h.
For series [1], the system named is MCF7. The series can be described thus: Cytotoxicity against human MCF7 cells assessed as reduction in cell viability measured after 48 hrs by MTT assay. Format: functional, cell-based. To be noted: MCF7, 48 h. In general terms: Formazan colour is commonly taken as a measure of viable cells.
Another series relates to HEK293. The series can be described thus: Cytotoxicity against HEK293 cells assessed as reduction in cell viability measured after 48 hrs by MTT assay. Type of series: cell-based. The settings on record: Homo sapiens, HEK293, 48 h.
The nature of series [2]: Cytotoxicity against human A2780/PTX cells assessed as reduction in cell viability measured after 48 hrs by MTT assay. Type of series: functional, cell-based.
A short description of series [3]: Neurotoxicity in BALB/c mouse assessed as increase in pain sensitivity at 12 umol/kg, ip administered every two days for 14 days by cold water tail immersion test. Format: toxicity, organism-based. The settings on record: in vivo, 336 h, dose 12 µmol/kg, time 14 day.
Series [4] can be described thus: Drug uptake in tumor of BALB/c nude mouse xenografted with human MCF7 cells at 8 to 12 umol/kg, ip measured after 2 hrs by LC-MS analysis. To be noted: in vivo, dose 8-12 µmol/kg. Format: ADME, organism-based, Neoplasm. For orientation: In xenograft studies the graft and the host belong to different species.
Series [5] in a line: Neurotoxicity in BALB/c mouse assessed as change in noradrenaline level at 12 umol/kg, ip administered every two days for 14 days measured post last dose by LC-MS analysis. Type of series: toxicity, organism-based. To be noted: in vivo, 336 h, dose 12 µmol/kg, time 14 day.
Series [6] is described as follows: Neurotoxicity in BALB/c mouse assessed as change in serotonin level at 12 umol/kg, ip administered every two days for 14 days measured post last dose by LC-MS analysis. To be noted: in vivo, 336 h, dose 12 µmol/kg, time 14 day. Type of series: toxicity, organism-based.
The nature of series [7]: Neurotoxicity in BALB/c mouse assessed as change in acetylcholine level at 12 umol/kg, ip administered every two days for 14 days measured post last dose by LC-MS analysis. The settings on record: in vivo, 336 h, dose 12 µmol/kg, time 14 day. Format: toxicity, organism-based.
Series [8] can be described thus: Neurotoxicity in BALB/c mouse assessed as change in dopamine level at 12 umol/kg, ip administered every two days for 14 days measured post last dose by LC-MS analysis. The settings on record: in vivo, 336 h, dose 12 µmol/kg, time 14 day. Format: toxicity, organism-based.
Series [9] relates to MCF7. The experiment in a line: Antitumor activity against human MCF7 cells xenografted in BALB/c nude mouse assessed as reduction in tumor weight at 12 umol/kg, ip administered every two days for two weeks relative to control. Type of series: functional. On the set-up: scale not given: the % may be the effect or the level left. The settings on record: dose 12 µmol/kg; time 2 weeks.

For a further series, the system named is NCM460. The series can be described thus: Cytotoxicity against human NCM460 cells assessed as reduction in cell viability measured after 48 hrs by MTT assay. Type of series: cell-based. The settings on record: NCM460, 48 h.
Series [10] is described as follows: Neurotoxicity in BALB/c mouse assessed as increase in pain sensitivity at 12 umol/kg, ip administered every two days for 14 days by hot water tail immersion test. To be noted: in vivo, 336 h, dose 12 µmol/kg, time 14 day. Type of series: toxicity, organism-based.
A short description of series [11]: Neurotoxicity in BALB/c mouse assessed as change in vanillylmandelic acid level at 12 umol/kg, ip administered every two days for 14 days measured post last dose by LC-MS analysis. Format: toxicity, organism-based. The settings on record: in vivo, 336 h, dose 12 µmol/kg, time 14 day.
Series [12] deals with MCF7. The series can be described thus: Induction of mitochondrial membrane potential loss in human MCF7 cells at IC50 measured after 4 hrs by JC-1 staining based flow cytometry. Type of series: functional, cell-based. (In flow cytometry, cells or beads pass a laser one at a time.)
Series [13] deals with MCF7. The experiment in a line: Cell cycle arrest in human MCF7 cells assessed as increase in accumulation at G2/M-phase at IC50 measured after 4 hrs by […] flow cytometry. Type of series: functional.
The nature of series [14]: Drug uptake in human MCF7 cells at 20 nM measured after 4 hrs by LC-MS analysis. Format: ADME, cell-based. The settings on record: mcf7, 4 h, 0.02 µM.
A short description of series [15]: Neurotoxicity in BALB/c mouse assessed as change in GABA level at 12 umol/kg, ip administered every two days for 14 days measured post last dose by LC-MS analysis. Type of series: toxicity, organism-based. The settings on record: in vivo, 336 h, dose 12 µmol/kg, time 14 day.
A short description of series [16]: Neurotoxicity in BALB/c mouse assessed as change in histamine level at 12 umol/kg, ip administered every two days for 14 days measured post last dose by LC-MS analysis. Format: toxicity, organism-based. To be noted: in vivo, 336 h, dose 12 µmol/kg, time 14 day.
Series [17] concerns MCF7. The experiment in a line: Antitumor activity against human MCF7 cells xenografted in BALB/c nude mouse assessed as reduction in tumor volume at 12 umol/kg, ip administered every two days for two weeks relative to control. Format: functional. Also on record: scale not given: the % may be the effect or the level left. To be noted: dose 12 µmol/kg; time 2 weeks.
In series [18] the test system is MCF7. The experiment in a line: Induction of apoptosis in human MCF7 cells at IC50 measured after 4 hrs by Annexin-V FITC/propidium iodide staining based flow cytometry. Format: functional, cell-based.
The nature of series [19]: Neurotoxicity in BALB/c mouse assessed as change in histidine level at 12 umol/kg, ip administered every two days for 14 days measured post last dose by LC-MS analysis. Format: toxicity, organism-based. To be noted: in vivo, 336 h, dose 12 µmol/kg, time 14 day.
A short description of series [20]: Neurotoxicity in BALB/c mouse assessed as change in glutamine level at 12 umol/kg, ip administered every two days for 14 days measured post last dose by LC-MS analysis. Format: toxicity, organism-based. To be noted: in vivo, 336 h, dose 12 µmol/kg, time 14 day.
Series [21] can be described thus: Neurotoxicity in BALB/c mouse assessed as change in glutamate level at 12 umol/kg, ip administered every two days for 14 days measured post last dose by LC-MS analysis. Type of series: toxicity, organism-based. The settings on record: in vivo, 336 h, dose 12 µmol/kg, time 14 day.
A further series concerns A2780. The experiment in a line: Cytotoxicity against human A2780 cells assessed as reduction in cell viability measured after 48 hrs by MTT assay. To be noted: A2780, 48 h. Type of series: functional, cell-based.
Series [22] can be described thus: Neurotoxicity in BALB/c mouse assessed as change in DOPAC level at 12 umol/kg, ip administered every two days for 14 days measured post last dose by LC-MS analysis. The settings on record: in vivo, 336 h, dose 12 µmol/kg, time 14 day. Format: toxicity, organism-based.
Series [23] can be described thus: Neurotoxicity in BALB/c mouse assessed as increase in pain sensitivity at 12 umol/kg, ip administered every two days for 14 days by hot-plate test. Type of series: toxicity, organism-based. To be noted: in vivo, 336 h, dose 12 µmol/kg, time 14 day.

One may read the IC50 as the concentration at which inhibition is half-maximal.

Activity calls are given as the source filed them. No cut-off for these calls is given here. Some results are limits rather than exact numbers.

With H-VKRFKKFFRKLKKSV-NH2, the IC50 in the series on HT-29 was found to be 15.1 µM; in the series with MCF7 [1], 18.2 µM.
Turning to H-FKKFFRKLK-NH2, the IC50 with HT-29 and with MCF7 [1] was over 50 µM in each case.
For the molecule H-KRFKKFFRK-NH2, the IC50 with HT-29 and with MCF7 [1] was over 50 µM each time.
H-KFFRKLKKS-NH2: the IC50 in the series on HT-29 and in the series with MCF7 [1] was over 50 µM in each case.
Consider H-VKRFKKFFR-NH2, for which the IC50 in the series on HT-29 and in the series with MCF7 [1] was over 50 µM throughout.
Consider H-RFKKFFRKL-NH2, for which the half-maximal inhibitory concentration (IC50) in the series with HT-29 and in the series on MCF7 [1] was over 50 µM throughout.
As for H-FFRKLKKSV-NH2, the IC50 in the series with HT-29 and in the series with MCF7 [1] was over 50 µM in each case.
Regarding H-KKFFRKLKK-NH2, the half-inhibitory concentration (IC50) in the series with HT-29 and in the series on MCF7 [1] was over 50 µM in each case.
Consider `CC(=O)O[C@H]1C(=O)[C@@]2(C)[C@H]([C@H](OC(=O)c3ccccc3)[C@]3(O)C[C@H](OC(=O)[C@H](O)[C@@H](NC(=O)c4ccccc4)c4ccccc4)C(C)=C1C3(C)C)[C@]1(OC(C)=O)CO[C@@H]1C[C@@H]2O` [PACLITAXEL], for which the IC50 with HEK293 was determined as 0.0163 µM; in [2], 23.9 µM; in the series with HT-29, 0.0086 µM; with NCM460, 0.0092 µM; in the series with MCF7 [1], 0.0066 µM; with A2780, 0.0152 µM. The Activity result is given as “Toxic” in series [3]; “Toxic” in [5]; “Toxic” in [6]; “Toxic” in series [7]; “Toxic” in [8]; 65.7% in the series with MCF7 [9]. The Activity entry is “Toxic” in [10]; “Toxic” in series [11]; “Toxic” in series [15]; “Toxic” in series [16]; 75.7% with MCF7 [17]; “Toxic” in series [19]. Also, the Activity entry in [20], in series [21], in [22] and in series [23] was “Toxic” in each case. For the same molecule, the Drug uptake result in series [4] and in series [14] was “Active” throughout. In addition, the result in the series with MCF7 [12], in the series with MCF7 [13] and with MCF7 [18] was Active.
